Consider 8 molecules from US11040975B2, “Carbocyclic nucleoside reverse transcriptase inhibitors” (Merck Sharp & Dohme Corp., priority 2017, dated 2021).

The subject of one data set is MT4-GFP cells. Description: CTG assay: cytotoxicity in CellTiter-Glo Luminescent Cell Viability Assay. Format: cell-based. As to conditions: CC50, MT4-GFP cells, 10% normal human serum, 48h incubation. On the procedure:
Assessing Cytotoxicity in CellTiter-Glo Luminescent Cell Viability Assay (CTG).
MT4-GFP cells were seeded in RPMI 1640 supplemented with 10% fetal bovine serum, 100 U/mL penicillin/streptomycin overnight at 37° C./5% CO2/90% relative humidity. Cells were then washed and resuspended in RPMI 1640 containing 10% normal human serum at a density of 0.8×10^5 cells/mL. Compound plates were prepared by dispensing compounds dissolved in DMSO into wells of 384 well solid black plates (Corning 3571) using an ECHO acoustic dispenser (0.2 μl/well). Each compound was tested in a 10 point serial 3-fold dilution (final concentrations: 8.4 μM-0.43 nM). Controls included DMSO. Cells were added (50 μL/well) to compound plates and were maintained at 37° C./5% CO2/90% relative humidity. CTG reagent (Promega, G7573) was added to the cell plates after 48h incubation according to the manufacturer's description. Luminescence signals were recorded on EnVision plate reader (PerkinElmer). CC50s were determined by non-linear 4-parameter curve fitting. The resulting data is shown in Table 3 with the marketed HIV nucleoside reverse transcriptase inhibitor AZT (azidothymidine, zidovudine) included as a control.
Background: Cellular ATP, detected with luciferase, serves as a proxy for viable cell number.

For the next data set, the system named is HIV-1 (H9IIIB virus). Kind of data set: Viking assay: antiviral potency in a multiple round HIV-1 infection assay (MT4-GFP cells). Format: cell-based. As to conditions: Human immunodeficiency virus 1, MT4-GFP cells, 10% normal human serum; inhibition of reproductive ratio R0; read-out: Viking, IC50 (10% NHS). The method, then: Assessing Antiviral Potency in a Multiple Round HIV-1 Infection Assay.
HIV-1 replication was monitored using MT4-gag-GFP clone D3 (hereafter designate MT4-GFP), which are MT-4 cells modified to harbor a GFP reporter gene, the expression of which is dependent on the HIV-1 expressed proteins tat and rev. Productive infection of an MT4-GFP cell with HIV-1 results in GFP expression approximately 24h post-infection.
MT4-GFP cells were maintained at 37° C./5% CO2/90% relative humidity in RPMI 1640 supplemented with 10% fetal bovine serum, 100 U/mL penicillin/streptomycin, and 400 μg/mL G418 to maintain the reporter gene. For infections, MT4-GFP cells were placed in the same medium lacking G418 and infected overnight with H9IIIB virus at an approximate multiplicity of infection of 0.01 in the same incubation conditions. Cells were then washed and re-suspended in either RPMI 1640 containing 10% or 50% normal human serum at 1.6×10^5 cells/mL. Compound plates were prepared by dispensing compounds dissolved in DMSO into wells of 384 well poly D lysine-coated plates ([…]) using an ECHO acoustic dispenser. Each compound was tested in a 10 point serial 3-fold dilution (typical final concentrations: 8.4 μM-0.43 nM). Controls included no inhibitor (DMSO only) and a combination of three antiviral agents (efavirenz, indinavir, and an integrase strand transfer inhibitor at final concentrations of 4 μM each). Cells were added (50 μL/well) to compound plates and the infected cells were maintained at 37° C./5% CO2/90% relative humidity.
Infected cells were quantified at two time points, ˜48h and ˜72h post-infection, by counting the number of green cells in each well using an Acumen eX3 scanner. The increase in the number of green cells over ˜24h period gives the reproductive ratio, R0, which is typically 5-15 and has been shown experimentally to be in logarithmic phase (data not shown). Inhibition of R0 is calculated for each well, and IC50s determined by non-linear 4-parameter curve fitting.

A further data set has as its target T1, HIV-1 RT enzyme (Human immunodeficiency virus type 1 group M subtype B, UniProt P04585).
T1 construct: Full-length wild-type and 2 mutant RT proteins were expressed in Escherichia coli BL21(DE3) cells and purified; made in house; host or cells: Escherichia coli BL21(DE3)
Kind of data set: RT Polymerase Assay. Format: biochemical. The settings on record: HIV-1 RT 50 pM; 90 min at 37° C.; triphosphates tested; read-out: dNTP IC50. The source says:
The compounds of Formula I, and pharmaceutically acceptable salts thereof, are HIV reverse transcriptase inhibitors. The compounds are useful for inhibiting HIV reverse transcriptase and for inhibiting HIV replication in vitro and in vivo. More particularly, the compounds of Formula I inhibit the polymerase function of HIV-1 reverse transcriptase. The testing of compounds of the Examples of the invention in the assay set forth in the RT Polymerase Assay below, illustrates the ability of compounds of the invention to inhibit the RNA-dependent DNA polymerase activity of HIV-1 reverse transcriptase. The compounds of Formula I may also be useful agents against HIV-2.
Full-length wild-type and 2 mutant RT proteins were expressed in Escherichia coli BL21(DE3) cells and purified. Briefly, the heterodimeric nucleic acid substrate used in the HIV-1 RT polymerase reactions was generated by annealing biotinylated DNA primer to a 500 nucleotide RNA template. The HIV-1 RT enzyme (final concentration of 50 pM) was combined with an inhibitor compound or DMSO (10% DMSO in the final reaction mixture) in assay buffer (62.5 mM Tris-HCl, pH 7.8, 1.25 mM dithiothreitol, 7.5 mM MgCl2, 100 mM KCl, 0.03% CHAPS, 0.125 mM EGTA). This mixture was pre-incubated for 30 minutes at room temperature in microtiter plates. The polymerization reaction was initiated by the addition of template/primer substrate (final concentration: 16.6 nM) and dNTPs (final concentration: 2 μM dCTP, dGTP, dATP, and 66.6 nM Ru-dUTP). After 90 min of incubation at 37° C., reactions were quenched by the addition of EDTA (25 mM). The resulting mixture was incubated for an additional 5 minutes at room temperature followed by transferring the solution (50 μL) to blocked avidin plate from Meso Scale Discovery (MSD). The mixtures were incubated at room temperature for 60 min prior to the quantification of the reaction product via an ECL 6000 imager instrument.

A value given as a limit tells only on which side of the number the result lay.

Usually IC50 stands for the point on the concentration scale where inhibition reaches its midpoint. As to `C#C[C@]1(CO)C[C@@H](n2cnc3c(N)nc(F)nc32)C[C@@H]1O` (racemic) [Example (+/−) 13, (1S,2S,4R)-4-(6-amino-2-fluoro-9H-purin-9-yl)-2-ethynyl-2-(hydroxymethyl)cyclopentan-1-ol and (1R,2R,4S)-4-(6-amino-2-fluoro-9H-purin-9-yl)-2-ethynyl-2-(hydroxymethyl)cyclopentan-1-ol], the CTG in the data set on MT4-GFP cells was above 42 µM. In addition, in the data set on HIV-1 (H9IIIB virus), the IC50 came out at 5.43 µM.
For `C#C[C@]1(CO)C[C@@H](n2cnc3c(Cl)nc(N)nc32)C[C@@H]1O` (racemic) [Example (+/−) 14, (1S,2S,4R)-4-(2-amino-6-chloro-9H-purin-9-yl)-2-ethynyl-2-(hydroxymethyl)cyclopentan-1-ol and (1R,2R,4S)-4-(2-amino-6-chloro-9H-purin-9-yl)-2-ethynyl-2-(hydroxymethyl)cyclopentan-1-ol] the same measures were above 42 µM and 5.64 µM.
Consider `C#C[C@]1(CO)C[C@@H](n2cnc3c(Cl)nc(Cl)nc32)C[C@@H]1O` (racemic) [Example (+/−) 17, (1S,2S,4R)-4-(2,6-dichloro-9H-purin-9-yl)-2-ethynyl-2-(hydroxymethyl)cyclopentan-1-ol and (1R,2R,4S)-4-(2,6-dichloro-9H-purin-9-yl)-2-ethynyl-2-(hydroxymethyl)cyclopentan-1-ol], for which the CTG in the data set with MT4-GFP cells was determined as 19.9 µM. In addition, the IC50 with HIV-1 (H9IIIB virus) amounted to 17.4 µM.
The like results for `C#C[C@]1(CO)C[C@@H](n2cnc3c(N)nc(Cl)nc32)C[C@@H]1O` (racemic) [Example (+/−) 18, (1S,2S,4R)-4-(6-amino-2-chloro-9H-purin-9-yl)-2-ethynyl-2-(hydroxymethyl)cyclopentan-1-ol and (1R,2R,4S)-4-(6-amino-2-chloro-9H-purin-9-yl)-2-ethynyl-2-(hydroxymethyl)cyclopentan-1-ol] were, in that order, above 42 µM and 19 µM.
For `C#C[C@@]1(CO)C[C@H](n2cnc3c(N)nc(Cl)nc32)C[C@H]1O` (single isomer, unassigned) [Example 18A, (1S,2S,4R)-4-(6-amino-2-chloro-9H-purin-9-yl)-2-ethynyl-2-(hydroxymethyl)cyclopentan-1-ol or (1R,2R,4S)-4-(6-amino-2-chloro-9H-purin-9-yl)-2-ethynyl-2-(hydroxymethyl)cyclopentan-1-ol] the same measures were above 42 µM and 25.2 µM.
In the case of `Cc1cn([C@H]2C[C@H](N=[N+]=[N-])[C@@H](CO)O2)c(=O)[nH]c1=O` [AZT, 3′-azido-3′-deoxythymidine, reference compound], in the data set on MT4-GFP cells, the “CTG” value is above 8.4 µM. For the same molecule, the IC50 in the data set on HIV-1 (H9IIIB virus) came out at 0.037 µM.
For “((1S,2S,4R)-4-(6-amino-2-fluoro-9H-purin-9-yl)-1-ethynyl-2-hydroxycyclopentyl)methyl tetrahydrogen triphosphate and ((1R,2R,4S)-4-(6-amino-2-fluoro-9H-purin-9-yl)-1-ethynyl-2-hydroxycyclopentyl)methyl tetrahydrogen triphosphate [Example (+/−) 41]”, the IC50 at HIV-1 RT enzyme was 3.46e+06 pM.
For “((1S,2S,4R)-4-(6-chloro-2-fluoro-9H-purin-9-yl)-1-ethynyl-2-hydroxycyclopentyl)methyl tetrahydrogen triphosphate and ((1R,2R,4S)-4-(6-chloro-2-fluoro-9H-purin-9-yl)-1-ethynyl-2-hydroxycyclopentyl)methyl tetrahydrogen triphosphate [Example (+/−) 40]”, the IC50 at HIV-1 RT enzyme was above 1e+08 pM.
